# Laboratory results from PubChem BioAssay (NCI).
#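 Step 1: Grow cells in 96-well plates. Step 2: Expose to compound for 48 hours at 5 concentrations. Step 3: Interpolate endpoints linearly; if unreached, use highest concentration. The concentration for 50% growth inhibition is given as GI50. TGI is the concentration that stops growth completely.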
# How the values were obtained:
# Assay in all cases: DTP human tumour cell line panel, 48 h
# MDA-MB-231 breast = system: MDA-MB-231 breast
# MALME-3M melanoma = system: MALME-3M melanoma
# NCI-H522 lung = system: NCI-H522 lung
# NCI-H226 lung = system: NCI-H226 lung
# NCI-H460 lung = system: NCI-H460 lung
# SK-OV-3 ovarian = system: SK-OV-3 ovarian
# TK-10 renal = system: TK-10 renal
# SF-539 CNS = system: SF-539 CNS
# NCI-H23 lung = system: NCI-H23 lung
# UACC-62 melanoma = system: UACC-62 melanoma
Structure (SMILES),GI50 (MDA-MB-231 breast),TGI (MDA-MB-231 breast),GI50 (MALME-3M melanoma),TGI (MALME-3M melanoma),GI50 (NCI-H522 lung),TGI (NCI-H522 lung),GI50 (NCI-H226 lung),TGI (NCI-H226 lung),GI50 (NCI-H460 lung),TGI (NCI-H460 lung),GI50 (SK-OV-3 ovarian),TGI (SK-OV-3 ovarian),GI50 (TK-10 renal),TGI (TK-10 renal),GI50 (SF-539 CNS),TGI (SF-539 CNS),GI50 (NCI-H23 lung),TGI (NCI-H23 lung),GI50 (UACC-62 melanoma),TGI (UACC-62 melanoma)
C=C1C(=O)O[C@H]2[C@H]1CC/C(Cn1cc(-c3ccccc3)nn1)=C\CC[C@@]1(C)O[C@@H]21,2 µM,7.89 µM,1.17 µM,2.84 µM,0.811 µM,1.66 µM,4.6 µM,11.2 µM,7.74 µM,23.3 µM,9.95 µM,17.9 µM,1.21 µM,4.53 µM,2.01 µM,7.18 µM,5.38 µM,12.4 µM,1.87 µM,8.22 µM
Cc1cc2c(F)c(Oc3ncnn4cc(OC[C@@H](C)OC(=O)[C@H](C)N)c(C)c34)ccc2[nH]1,14.1 µM,29.7 µM,11.7 µM,24.9 µM,11.1 µM,24.7 µM,7.75 µM,24.8 µM,2.1 µM,13.8 µM,12.4 µM,26.7 µM,13.5 µM,27.1 µM,4.81 µM,17.3 µM,11.8 µM,25.9 µM,8.67 µM,21.9 µM
C=C1C(=O)OC2CC3(CO3)C3C(O)C(O)CC3(C)CC12 (centres undefined),–,60.5 µM,–,37.5 µM,–,27.9 µM,–,> 100 µM,–,> 100 µM,–,> 100 µM,–,> 100 µM,–,39.2 µM,–,47.9 µM,–,38 µM
CCOC(CN=c1nc(N(C)C)ss1)OCC,–,29.8 µM,–,52.9 µM,–,1.45 µM,–,36 µM,–,> 94.4 µM,–,> 100 µM,–,73.5 µM,–,31.4 µM,–,65.8 µM,–,21.4 µM
Cn1c(=O)c2[nH]c(CS(=O)(=O)Cc3nc4c([nH]3)c(=O)n(C)c(=O)n4C)nc2n(C)c1=O,–,> 100 µM,–,> 100 µM,–,> 100 µM,–,> 100 µM,–,> 100 µM,–,> 100 µM,–,> 100 µM,–,> 100 µM,–,> 100 µM,–,> 100 µM
Cc1[nH]c(/C=C2\C(=O)Nc3ccc(F)cc32)c(C)c1C(=O)NC[C@H](O)CN1CCOCC1,4.25 µM,> 10 µM,4.21 µM,> 10 µM,> 10 µM,> 10 µM,2.33 µM,> 10 µM,2.39 µM,> 10 µM,2.95 µM,> 10 µM,5.37 µM,> 10 µM,4.31 µM,> 10 µM,2.41 µM,> 10 µM,3.55 µM,> 10 µM
OCCCCC#Cc1ccccc1C#Cc1ccccc1C(F)(F)F,2.83 µM,12.4 µM,14.7 µM,37.5 µM,9.13 µM,22.7 µM,16.7 µM,44.4 µM,17.9 µM,34.7 µM,17.7 µM,32.7 µM,18.6 µM,47.1 µM,12 µM,25.2 µM,12.1 µM,27.8 µM,11.3 µM,23.5 µM
O=C1OC(=O)C2C1C1(c3ccccc3)C(c3ccccc3)=C(c3ccccc3)C2(c2ccccc2)S1=O (centres undefined),> 100 µM,> 100 µM,> 100 µM,> 100 µM,> 100 µM,> 100 µM,> 100 µM,> 100 µM,> 100 µM,> 100 µM,> 100 µM,> 100 µM,> 100 µM,> 100 µM,> 100 µM,> 100 µM,> 100 µM,> 100 µM,49.4 µM,> 100 µM
O=C1CCC2(C=C(Br)C(=O)C(Br)=C2)O1,15.4 µM,33.6 µM,2.07 µM,4.67 µM,0.31 µM,1.05 µM,17.6 µM,36.2 µM,19.6 µM,38.6 µM,17.4 µM,31.3 µM,2.01 µM,4.14 µM,2.63 µM,7.14 µM,12 µM,30 µM,14.8 µM,29 µM
CCN(CC)CCOc1ccc(/C=C2\CC3C4CC=C5C[C@@H](N6CCCC6)CC[C@]5(C)C4CC[C@]3(C)[C@H]2O)cc1OC (some centres undefined),2.96 µM,7.58 µM,3.68 µM,9.82 µM,9.06 µM,> 30.2 µM,19.3 µM,45.2 µM,14.2 µM,65.7 µM,27.2 µM,> 70.8 µM,9.64 µM,37.2 µM,1.91 µM,3.93 µM,8.87 µM,25.1 µM,16.6 µM,34.6 µM
O=C(Nc1ccc(Cl)cc1)c1cc2ccccc2cc1O,5.83 µM,> 100 µM,1.67 µM,95.6 µM,1.25 µM,6.88 µM,2.59 µM,82.2 µM,2.67 µM,> 100 µM,1.91 µM,9.61 µM,3.93 µM,> 100 µM,4.01 µM,> 100 µM,2 µM,> 100 µM,0.899 µM,> 100 µM
COc1ccc(/C=C\c2cc(OC)c(OC)c(OC)c2)cc1OCC(=O)Nc1nc2ccc(C(F)(F)F)cc2s1,3.38 µM,> 100 µM,> 100 µM,> 100 µM,2.89 µM,19.6 µM,3.17 µM,31.3 µM,3.55 µM,> 100 µM,3.29 µM,17.2 µM,7.03 µM,> 100 µM,2.66 µM,7.87 µM,3.9 µM,> 100 µM,3.9 µM,> 100 µM
O=C(Nc1ncc(Cc2ccccc2Cl)s1)c1ccc2c(c1)OCCO2,0.38 µM,8.76 µM,0.68 µM,> 47.1 µM,0.261 µM,–,1.17 µM,8.45 µM,0.352 µM,> 44.1 µM,0.537 µM,22.6 µM,0.672 µM,> 40 µM,0.258 µM,0.741 µM,0.625 µM,> 100 µM,0.569 µM,> 43.3 µM
